Results taken from PMC6199309, “A therapeutic approach to pantothenate kinase associated neurodegeneration” (Nature Communications, 2018).

Legend:
Assay in all cases: KINOMEscan
Format in all cases: binding
Details in all cases: read-out: %Ctrl @ 10000nM
RET(M918T) = target: T1, RET(M918T) (Homo sapiens, UniProt P07949, M918T)
T1 construct: purchased DiscoverX KINOMEscan

AMPK-alpha2 = target: T2, AMPK-alpha2 (Homo sapiens, UniProt P54646)
T2 construct: purchased DiscoverX KINOMEscan

TAOK1 = target: T3, TAOK1 (Homo sapiens, UniProt Q7L7X3)
T3 construct: purchased DiscoverX KINOMEscan

NEK4 = target: T4, NEK4 (Homo sapiens, UniProt P51957)
T4 construct: purchased DiscoverX KINOMEscan

GSK3A = target: T5, GSK3A (Homo sapiens, UniProt P49840)
T5 construct: purchased DiscoverX KINOMEscan

WNK2 = target: T6, WNK2 (Homo sapiens, UniProt Q9Y3S1)
T6 construct: DNA label for qPCR (T7 phage fusion or DNA tag); purchased DiscoverX scanMAX; host or cells: E. coli BL21-derived (T7 phage) or HEK-293

PRKX = target: T7, PRKX (Homo sapiens, UniProt P51817)
T7 construct: purchased DiscoverX KINOMEscan

FLT3(K663Q) = target: T8, FLT3(K663Q) (Homo sapiens, UniProt P36888, K663Q)
T8 construct: purchased DiscoverX KINOMEscan

PYK2 = target: T9, PYK2 (Homo sapiens, UniProt Q14289)
T9 construct: purchased DiscoverX KINOMEscan

PKAC-beta = target: T10, PKAC-beta (Homo sapiens, UniProt P22694)
T10 construct: purchased DiscoverX KINOMEscan

IRAK3 = target: T11, IRAK3 (Homo sapiens, UniProt Q9Y616)
T11 construct: purchased DiscoverX KINOMEscan

DMPK2 = target: T12, DMPK2 (Homo sapiens, UniProt Q6DT37)
T12 construct: purchased DiscoverX KINOMEscan

ULK2 = target: T13, ULK2 (Homo sapiens, UniProt Q8IYT8)
T13 construct: DNA label for qPCR (T7 phage fusion or DNA tag); purchased DiscoverX scanMAX; host or cells: E. coli BL21-derived (T7 phage) or HEK-293

AMPK-alpha1 = target: T14, AMPK-alpha1 (Homo sapiens, UniProt Q13131)
T14 construct: purchased DiscoverX KINOMEscan

EPHA4 = target: T15, EPHA4 (Homo sapiens, UniProt P54764)
T15 construct: purchased DiscoverX KINOMEscan

LRRK2(G2019S) = target: T16, LRRK2(G2019S) (Homo sapiens, UniProt Q5S007, G2019S)
T16 construct: purchased DiscoverX KINOMEscan

[1] = target: T17, EGFR(L747-E749del, A750P) (Homo sapiens, UniProt P00533, A750P/DEL747-749)
T17 construct: purchased DiscoverX KINOMEscan

CDK9 = target: T18, CDK9 (Homo sapiens, UniProt P50750)
T18 construct: purchased DiscoverX KINOMEscan

INSRR = target: T19, INSRR (Homo sapiens, UniProt P14616)
T19 construct: purchased DiscoverX KINOMEscan

PIK3CA(I800L) = target: T20, PIK3CA(I800L) (Homo sapiens, UniProt P42336, I800L)
T20 construct: purchased DiscoverX KINOMEscan

TNIK = target: T21, TNIK (Homo sapiens, UniProt Q9UKE5)
T21 construct: purchased DiscoverX KINOMEscan

PRKD2 = target: T22, PRKD2 (Homo sapiens, UniProt Q9BZL6)
T22 construct: purchased DiscoverX KINOMEscan

PCTK1 = target: T23, PCTK1 (Homo sapiens, UniProt Q00536)
T23 construct: purchased DiscoverX KINOMEscan

[2] = target: T24, ABL1(Q252H)-phosphorylated (Homo sapiens, UniProt P00519, Q252H)
T24 construct: purchased DiscoverX KINOMEscan

KIT(L576P) = target: T25, KIT(L576P) (Homo sapiens, UniProt P10721, L576P)
T25 construct: purchased DiscoverX KINOMEscan

CLK4 = target: T26, CLK4 (Homo sapiens, UniProt Q9HAZ1)
T26 construct: purchased DiscoverX KINOMEscan

PIK3CA(E545K) = target: T27, PIK3CA(E545K) (Homo sapiens, UniProt P42336, E545K)
T27 construct: purchased DiscoverX KINOMEscan

ERBB4 = target: T28, ERBB4 (Homo sapiens, UniProt Q15303)
T28 construct: purchased DiscoverX KINOMEscan

CSNK1E = target: T29, CSNK1E (Homo sapiens, UniProt P49674)
T29 construct: purchased DiscoverX KINOMEscan

CSNK1G1 = target: T30, CSNK1G1 (Homo sapiens, UniProt Q9HCP0)
T30 construct: purchased DiscoverX KINOMEscan

PIK3CA(C420R) = target: T31, PIK3CA(C420R) (Homo sapiens, UniProt P42336, C420R)
T31 construct: purchased DiscoverX KINOMEscan

[3] = target: T32, JAK1(JH2domain-pseudokinase) (Homo sapiens, UniProt P23458)
T32 construct: JAK1(JH2domain-pseudokinase); purchased DiscoverX KINOMEscan

CDK11 = target: T33, CDK11 (Homo sapiens, UniProt Q9BWU1)
T33 construct: purchased DiscoverX KINOMEscan

[4] = target: T34, RSK3(Kin.Dom.2-C-terminal) (Homo sapiens, UniProt Q15349)
T34 construct: RSK3(Kin.Dom.2-C-terminal); purchased DiscoverX KINOMEscan

MAP3K4 = target: T35, MAP3K4 (Homo sapiens, UniProt Q9Y6R4)
T35 construct: purchased DiscoverX KINOMEscan

PIK3CA(H1047Y) = target: T36, PIK3CA(H1047Y) (Homo sapiens, UniProt P42336, H1047Y)
T36 construct: purchased DiscoverX KINOMEscan

RIPK1 = target: T37, RIPK1 (Homo sapiens, UniProt Q13546)
T37 construct: purchased DiscoverX KINOMEscan

HIPK4 = target: T38, HIPK4 (Homo sapiens, UniProt Q8NE63)
T38 construct: purchased DiscoverX KINOMEscan

PRKG2 = target: T39, PRKG2 (Homo sapiens, UniProt Q13237)
T39 construct: purchased DiscoverX KINOMEscan

LZK = target: T40, LZK (Homo sapiens, UniProt O43283)
T40 construct: purchased DiscoverX KINOMEscan
T40 sequence (O43283 whole entry): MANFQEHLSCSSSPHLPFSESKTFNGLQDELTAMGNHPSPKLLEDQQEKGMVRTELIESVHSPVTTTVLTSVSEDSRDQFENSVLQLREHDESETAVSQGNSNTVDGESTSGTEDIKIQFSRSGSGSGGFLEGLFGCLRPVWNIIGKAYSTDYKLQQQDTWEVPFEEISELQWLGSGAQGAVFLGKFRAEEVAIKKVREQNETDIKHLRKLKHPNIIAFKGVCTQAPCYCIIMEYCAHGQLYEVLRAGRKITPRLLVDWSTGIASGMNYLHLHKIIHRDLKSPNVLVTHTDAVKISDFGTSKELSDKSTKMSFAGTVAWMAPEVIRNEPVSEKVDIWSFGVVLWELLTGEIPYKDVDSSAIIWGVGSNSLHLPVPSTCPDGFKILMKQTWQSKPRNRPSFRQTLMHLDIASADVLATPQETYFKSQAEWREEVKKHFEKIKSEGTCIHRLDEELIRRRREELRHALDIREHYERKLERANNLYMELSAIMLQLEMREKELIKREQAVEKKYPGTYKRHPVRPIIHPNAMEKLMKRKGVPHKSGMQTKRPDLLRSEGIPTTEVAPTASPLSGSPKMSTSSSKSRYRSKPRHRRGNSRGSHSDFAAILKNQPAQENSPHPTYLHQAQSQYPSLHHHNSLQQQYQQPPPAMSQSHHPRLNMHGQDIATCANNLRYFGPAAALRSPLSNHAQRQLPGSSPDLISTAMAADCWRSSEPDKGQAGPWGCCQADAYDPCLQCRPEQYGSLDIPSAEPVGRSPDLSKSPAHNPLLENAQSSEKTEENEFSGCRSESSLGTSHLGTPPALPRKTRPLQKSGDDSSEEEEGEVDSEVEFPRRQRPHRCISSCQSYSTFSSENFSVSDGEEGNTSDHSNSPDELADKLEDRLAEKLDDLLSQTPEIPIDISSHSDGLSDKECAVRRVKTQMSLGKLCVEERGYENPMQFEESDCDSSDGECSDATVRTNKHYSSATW

T23 sequence (Q00536 whole entry): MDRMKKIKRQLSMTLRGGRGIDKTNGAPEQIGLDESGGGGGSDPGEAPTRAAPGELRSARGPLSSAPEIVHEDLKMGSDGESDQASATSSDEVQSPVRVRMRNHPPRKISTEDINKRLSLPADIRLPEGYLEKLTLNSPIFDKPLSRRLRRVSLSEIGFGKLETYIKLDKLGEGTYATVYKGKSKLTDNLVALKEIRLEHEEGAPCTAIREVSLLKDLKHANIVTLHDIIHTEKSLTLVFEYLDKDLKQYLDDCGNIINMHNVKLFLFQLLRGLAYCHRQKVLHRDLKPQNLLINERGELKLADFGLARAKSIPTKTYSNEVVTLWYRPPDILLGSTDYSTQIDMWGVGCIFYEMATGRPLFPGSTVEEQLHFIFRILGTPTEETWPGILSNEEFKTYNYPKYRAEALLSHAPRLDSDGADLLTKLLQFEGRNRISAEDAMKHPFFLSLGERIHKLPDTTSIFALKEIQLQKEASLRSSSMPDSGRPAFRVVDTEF
T11 sequence (Q9Y616 whole entry): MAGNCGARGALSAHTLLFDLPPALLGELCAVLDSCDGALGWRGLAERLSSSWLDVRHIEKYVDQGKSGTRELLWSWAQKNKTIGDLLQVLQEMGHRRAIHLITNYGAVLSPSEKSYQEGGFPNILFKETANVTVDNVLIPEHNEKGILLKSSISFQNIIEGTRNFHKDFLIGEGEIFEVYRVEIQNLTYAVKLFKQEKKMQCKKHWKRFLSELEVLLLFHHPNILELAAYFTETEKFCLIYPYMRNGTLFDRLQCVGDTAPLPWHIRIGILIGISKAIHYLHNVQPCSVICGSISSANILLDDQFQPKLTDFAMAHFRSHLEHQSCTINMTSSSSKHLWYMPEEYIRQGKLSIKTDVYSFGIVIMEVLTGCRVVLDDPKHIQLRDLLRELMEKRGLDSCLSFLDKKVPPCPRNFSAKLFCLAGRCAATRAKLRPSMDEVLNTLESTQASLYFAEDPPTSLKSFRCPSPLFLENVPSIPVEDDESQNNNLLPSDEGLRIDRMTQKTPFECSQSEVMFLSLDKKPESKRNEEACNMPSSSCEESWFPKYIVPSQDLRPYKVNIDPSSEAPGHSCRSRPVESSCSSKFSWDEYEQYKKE
T20 sequence (P42336 whole entry I800L): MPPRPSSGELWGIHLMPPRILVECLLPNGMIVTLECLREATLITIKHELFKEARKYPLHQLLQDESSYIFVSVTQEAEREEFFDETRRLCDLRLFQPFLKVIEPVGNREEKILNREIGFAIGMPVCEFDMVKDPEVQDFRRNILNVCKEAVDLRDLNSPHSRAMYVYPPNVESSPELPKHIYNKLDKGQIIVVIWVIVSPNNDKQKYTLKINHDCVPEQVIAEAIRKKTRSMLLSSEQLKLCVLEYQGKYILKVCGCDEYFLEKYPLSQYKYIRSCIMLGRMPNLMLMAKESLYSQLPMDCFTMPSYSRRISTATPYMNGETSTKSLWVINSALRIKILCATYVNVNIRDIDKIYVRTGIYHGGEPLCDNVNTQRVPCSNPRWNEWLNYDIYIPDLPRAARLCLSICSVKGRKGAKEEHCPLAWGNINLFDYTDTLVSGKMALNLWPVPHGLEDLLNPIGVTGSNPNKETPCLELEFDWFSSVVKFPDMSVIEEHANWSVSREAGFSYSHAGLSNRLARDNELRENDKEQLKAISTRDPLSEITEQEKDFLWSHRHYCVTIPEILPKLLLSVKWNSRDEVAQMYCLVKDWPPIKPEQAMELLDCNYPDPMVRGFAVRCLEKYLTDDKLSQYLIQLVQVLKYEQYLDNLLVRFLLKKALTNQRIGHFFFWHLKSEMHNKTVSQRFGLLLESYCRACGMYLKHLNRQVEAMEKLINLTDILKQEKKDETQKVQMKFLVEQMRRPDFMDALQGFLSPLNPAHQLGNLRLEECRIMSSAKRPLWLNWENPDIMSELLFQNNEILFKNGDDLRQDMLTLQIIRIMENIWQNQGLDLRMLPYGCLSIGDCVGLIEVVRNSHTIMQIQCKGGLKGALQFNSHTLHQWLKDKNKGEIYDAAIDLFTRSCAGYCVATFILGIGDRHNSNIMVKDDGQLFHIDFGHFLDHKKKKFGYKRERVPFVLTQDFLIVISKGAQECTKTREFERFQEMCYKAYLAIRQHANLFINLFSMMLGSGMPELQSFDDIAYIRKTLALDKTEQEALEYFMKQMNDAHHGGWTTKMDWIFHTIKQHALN
T32 sequence (P23458 574-855 limits assumed): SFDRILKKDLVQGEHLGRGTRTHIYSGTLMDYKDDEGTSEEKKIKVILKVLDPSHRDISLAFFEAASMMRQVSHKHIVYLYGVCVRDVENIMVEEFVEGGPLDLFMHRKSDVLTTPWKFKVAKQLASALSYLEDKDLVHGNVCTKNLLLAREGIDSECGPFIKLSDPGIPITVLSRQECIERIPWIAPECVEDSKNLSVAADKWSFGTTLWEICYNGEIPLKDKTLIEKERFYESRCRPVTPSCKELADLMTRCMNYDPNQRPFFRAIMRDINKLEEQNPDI
T12 sequence (Q6DT37 whole entry): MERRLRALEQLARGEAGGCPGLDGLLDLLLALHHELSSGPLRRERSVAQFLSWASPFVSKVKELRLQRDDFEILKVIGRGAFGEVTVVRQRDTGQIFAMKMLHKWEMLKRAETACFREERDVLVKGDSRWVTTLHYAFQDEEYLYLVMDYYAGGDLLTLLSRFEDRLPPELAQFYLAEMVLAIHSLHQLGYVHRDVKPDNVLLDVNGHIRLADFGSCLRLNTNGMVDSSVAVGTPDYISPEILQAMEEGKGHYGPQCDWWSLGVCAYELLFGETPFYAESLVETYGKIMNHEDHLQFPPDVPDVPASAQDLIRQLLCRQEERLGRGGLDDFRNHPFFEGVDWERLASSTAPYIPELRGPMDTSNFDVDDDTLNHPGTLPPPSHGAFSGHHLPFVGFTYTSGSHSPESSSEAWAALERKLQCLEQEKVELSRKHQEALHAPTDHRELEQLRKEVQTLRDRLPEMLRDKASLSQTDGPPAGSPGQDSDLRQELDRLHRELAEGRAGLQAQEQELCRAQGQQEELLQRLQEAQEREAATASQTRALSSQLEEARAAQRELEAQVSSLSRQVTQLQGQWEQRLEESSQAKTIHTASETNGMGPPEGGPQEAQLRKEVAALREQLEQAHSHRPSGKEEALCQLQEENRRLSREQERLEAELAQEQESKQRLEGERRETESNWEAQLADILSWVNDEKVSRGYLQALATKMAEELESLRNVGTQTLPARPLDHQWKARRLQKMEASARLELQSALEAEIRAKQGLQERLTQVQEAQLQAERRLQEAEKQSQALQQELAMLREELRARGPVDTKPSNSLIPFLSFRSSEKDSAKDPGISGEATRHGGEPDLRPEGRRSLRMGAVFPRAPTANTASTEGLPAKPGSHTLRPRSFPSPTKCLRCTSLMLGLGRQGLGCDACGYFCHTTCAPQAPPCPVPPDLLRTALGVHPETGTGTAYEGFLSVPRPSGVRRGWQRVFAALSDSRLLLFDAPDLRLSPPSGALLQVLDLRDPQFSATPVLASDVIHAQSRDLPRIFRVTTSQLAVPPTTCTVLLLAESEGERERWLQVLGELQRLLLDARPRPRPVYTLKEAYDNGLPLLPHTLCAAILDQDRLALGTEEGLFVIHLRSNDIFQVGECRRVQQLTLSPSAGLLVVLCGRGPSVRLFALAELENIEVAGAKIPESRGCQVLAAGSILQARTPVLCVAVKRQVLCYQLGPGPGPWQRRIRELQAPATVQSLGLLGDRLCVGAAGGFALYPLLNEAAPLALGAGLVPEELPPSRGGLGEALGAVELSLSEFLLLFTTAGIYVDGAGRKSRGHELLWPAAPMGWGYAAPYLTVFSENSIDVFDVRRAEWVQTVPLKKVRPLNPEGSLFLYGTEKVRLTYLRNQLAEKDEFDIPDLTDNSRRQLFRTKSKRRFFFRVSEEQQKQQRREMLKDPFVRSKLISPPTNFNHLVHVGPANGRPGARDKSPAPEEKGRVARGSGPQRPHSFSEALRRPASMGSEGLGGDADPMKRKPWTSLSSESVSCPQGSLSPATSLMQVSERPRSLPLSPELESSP
T27 sequence (P42336 whole entry E545K): as the sequence (P42336 whole entry I800L) above, with E545K, L800I counted along it
T31 sequence (P42336 whole entry C420R): as the sequence (P42336 whole entry I800L) above, with C420R, L800I counted along it
T36 sequence (P42336 whole entry H1047Y): as the sequence (P42336 whole entry I800L) above, with L800I, H1047Y counted along it

## CC(C)c1ccc(CC(=O)N2CCN(c3ccc(C#N)nn3)CC2)cc1 [PZ-2891, 6-(4-(2-(4-isopropylphenyl)acetyl)piperazin-1-yl)pyridazine-3-carbonitrile]
RET(M918T)
  remaining binding at 10 µM: 95%
AMPK-alpha2
  remaining binding at 10 µM: 100%
TAOK1
  remaining binding at 10 µM: 93%
NEK4
  remaining binding at 10 µM: 95%
GSK3A
  remaining binding at 10 µM: 83%
WNK2
  remaining binding at 10 µM: 87%
PRKX
  remaining binding at 10 µM: 70%
FLT3(K663Q)
  remaining binding at 10 µM: 88%
PYK2
  remaining binding at 10 µM: 90%
PKAC-beta
  remaining binding at 10 µM: 95%
IRAK3
  remaining binding at 10 µM: 42%
DMPK2
  remaining binding at 10 µM: 93%
ULK2
  remaining binding at 10 µM: 86%
AMPK-alpha1
  remaining binding at 10 µM: 92%
EPHA4
  remaining binding at 10 µM: 93%
LRRK2(G2019S)
  remaining binding at 10 µM: 100%
[1]
  remaining binding at 10 µM: 72%
CDK9
  remaining binding at 10 µM: 98%
INSRR
  remaining binding at 10 µM: 82%
PIK3CA(I800L)
  remaining binding at 10 µM: 42%
TNIK
  remaining binding at 10 µM: 91%
PRKD2
  remaining binding at 10 µM: 82%
PCTK1
  remaining binding at 10 µM: 76%
[2]
  remaining binding at 10 µM: 74%
KIT(L576P)
  remaining binding at 10 µM: 88%
CLK4
  remaining binding at 10 µM: 98%
PIK3CA(E545K)
  remaining binding at 10 µM: 65%
ERBB4
  remaining binding at 10 µM: 100%
CSNK1E
  remaining binding at 10 µM: 97%
CSNK1G1
  remaining binding at 10 µM: 92%
PIK3CA(C420R)
  remaining binding at 10 µM: 76%
[3]
  remaining binding at 10 µM: 47%
CDK11
  remaining binding at 10 µM: 78%
[4]
  remaining binding at 10 µM: 66%
MAP3K4
  remaining binding at 10 µM: 93%
PIK3CA(H1047Y)
  remaining binding at 10 µM: 46%
RIPK1
  remaining binding at 10 µM: 98%
HIPK4
  remaining binding at 10 µM: 94%
PRKG2
  remaining binding at 10 µM: 76%
LZK
  remaining binding at 10 µM: 89%
